The record followed here is a flash point compilation (Sun et al. 2020).

`Cc1ccccn1` [2-picoline] registered a flash point of 26 °C.
With `CCCc1ccccc1N` [2-propylaniline] the figure was 97 °C; with `CCCc1cccs1` [2-propylthiophene], 32 °C.
For `C#CCO` [2-propyn-1-ol] the value was 36 °C; for `CCC(C)c1ccccc1N` (centres undefined) [2-sec-butylaniline], 102 °C.
In turn, `CC(C)(C)C1CCCCC1=O` (centres undefined) [2-tert-butylcyclohexanone] yielded a flash point of 72 °C.
Compound `CC(C)(C)c1ccco1` [2-tert-butylfuran] had a flash point of 7 °C.
`CC(C)(C)c1ccccc1O` [2-tert-butylphenol] had a flash point of 102 °C.
With `CCCCCCCCCC(C)O` (centres undefined) [2-undecanol] the figure was 107 °C; with `CCC(C)C(C)(C)CC` (centres undefined) [3,3,4-trimethylhexane], 15 °C.
With `CCCC(C)C(C)CC` (centres undefined) [3,4-dimethylheptane] the figure was 15 °C; with `CC(C)=CCCC(C)CC=O` (centres undefined) [3,7-dimethyl-6-octenal], 78 °C.
For `CCCC(Br)CC` (centres undefined) [3-bromohexane] the value was 40 °C; for `CCC(Br)CC` [3-bromopentane], 19 °C; for `Cc1cccc(Br)c1` [3-bromotoluene], 75 °C.
Turning to `C=CCCO` [3-buten-1-ol], the flash point is 32 °C.
For `C=CC(C)O` (centres undefined) [3-buten-2-ol] the value was 20 °C.
`OCCCCl` [3-chloro-1-propanol]: the flash point amounted to 73 °C.
`C=C(C)CCl` [3-chloro-2-methyl-1-propene] displayed a flash point of -12 °C.
`C=CCCl` [3-chloropropene] displayed a flash point of -28 °C.
Take `CCC(CC)C(C)(C)C` [3-ethyl-2,2-dimethylpentane]: the flash point was found to be 13 °C.
For `CCC(C(C)C)C(C)C` [3-ethyl-2,4-dimethylpentane] the value was 15 °C.
In the case of `CCC(CC)C(C)C` [3-ethyl-2-methylpentane], the flash point was 3 °C.
For `CC=C(CC)CC` [3-ethyl-2-pentene] the value was -6 °C.
With `CCCCC(C)(CC)CC` [3-ethyl-3-methylheptane] the figure was 41 °C.
With `CCC(C)CC(CC)CC` (centres undefined) [3-ethyl-5-methylheptane] the figure was 31 °C.
For `CCCC(CC)CC` [3-ethylhexane], the flash point is 5 °C.
On to `CCc1cccc(O)c1` [3-ethylphenol], for which the flash point is 94 °C.
In the case of `CCc1ccsc1` [3-ethylthiophene], the flash point was found to be 23 °C.
For `Cc1cccc(F)c1` [3-fluorotoluene] the value was 12 °C.
For `CCCCC(=O)CC` [3-heptanone] the value was 38 °C; for `CCC#CCC` [3-hexyne], -14 °C; for `C=CCI` [3-iodo-1-propene], 16 °C.
Take `CCCC(I)CC` (centres undefined) [3-iodohexane]: the flash point came out at 55 °C.
As to `CC(C)c1cccc(O)c1` [3-isopropylphenol], the flash point amounted to 104 °C.
With `C=CC(C)CCC` (centres undefined) [3-methyl-1-hexene] the figure was -18 °C; with `C=CC(C)CC` (centres undefined) [3-methyl-1-pentene], -33 °C.
With `CC(C)C(C)S` (centres undefined) [3-methyl-2-butanethiol] the figure was 9 °C; with `CC(C)C(C)O` (centres undefined) [3-methyl-2-butanol], 27 °C; with `Cc1cccc(N)c1` [3-methylaniline], 86 °C.
With `CC(C)CC(=O)O` [3-methylbutanoicacid] the figure was 74 °C; with `CC(C)CC(=O)OC(=O)CC(C)C` [3-methylbutanoicanhydride], 91 °C; with `CC1CCCC(=O)C1` (centres undefined) [3-methylcyclohexanone], 48 °C.
In turn, `CCCCC(C)CC` (centres undefined) [3-methylheptane] gave a flash point of 6 °C.
With `CCCC(C)CC` (centres undefined) [3-methylhexane] the figure was -15 °C; with `CCCC(C)CC(=O)O` (centres undefined) [3-methylhexanoicacid], 103 °C; with `C=Cc1cccc(C)c1` [3-methylstyrene], 48 °C.
For `Cc1ccsc1` [3-methylthiophene] the value was 11 °C; for `CCCCCCC(O)CC` (centres undefined) [3-nonanol], 79 °C.
For `CCC#CCCCCC` [3-nonyne] the value was 38 °C; for `CCCCCC(O)CC` (centres undefined) [3-octanol], 68 °C.
In the case of `CC(=O)OCCCc1ccccc1` [3-phenylpropylacetate], the flash point was found to be 113 °C.
With `CCCCCCCCC(=O)CC` [3-undecanone] the figure was 89 °C; with `C=CCCBr` [4-bromo-1-butene], 9 °C.
For `CCCCCCC(=O)CCC` [4-decanone] the value was 71 °C; for `CCCC#CCCCCC` [4-decyne], 52 °C; for `CCc1ccc(N)cc1` [4-ethylaniline], 97 °C.
`CCCC(CC)CCC` [4-ethylheptane] had a flash point of 15 °C.
For `C=CC=C(C)C` [4-methyl-1,3-pentadiene], the flash point was -18 °C.
For `C=CCC(C)CCC` (centres undefined) [4-methyl-1-heptene] the value was 2 °C.
For `C=CCC(C)CC` (centres undefined) [4-methyl-1-hexene] the value was -15 °C; for `CC(C)CCCO` [4-methyl-1-pentanol], 51 °C; for `C#CCC(C)C` [4-methyl-1-pentyne], -24 °C.
Compound `CC(=O)CC(C)C` [4-methyl-2-pentanone] gave a flash point of 14 °C.
For `C=CC1(C)CCC(=O)O1` (centres undefined) [4-methyl-4-vinylbutyrolactone] the value was 75 °C.
`CC1CCC(=O)CC1` [4-methylcyclohexanone] registered a flash point of 48 °C.
With `CCC(C)CCC(=O)O` (centres undefined) [4-methylhexanoicacid] the figure was 103 °C.
On to `CCCCCC(C)CCC` (centres undefined) [4-methylnonane], for which the flash point is 38 °C.
With `CCCCC(C)CCC` (centres undefined) [4-methyloctane] the figure was 22 °C; with `CC(C)CCC(=O)O` [4-methylpentanoicacid], 97 °C.
Take `C=Cc1ccc(C)cc1` [4-methylstyrene]: the flash point came to 46 °C.
With `CCCCCC(=O)CCC` [4-nonanone] the figure was 62 °C; with `CCCC#CCCCC` [4-nonyne], 35 °C.
For `Cc1ccncc1` [4-picoline] the value was 38 °C; for `CCCC1CCC(=O)CC1` [4-propylcyclohexanone], 86 °C.
For `CSCCC=O` [4-thiapentanal] the value was 61 °C; for `CCCCCCCC(=O)CCC` [4-undecanone], 92 °C.
In the case of `C#CCCCCl` [5-chloro-1-pentyne], the flash point was 15 °C.
For `C=CCCC(C)C` [5-methyl-1-hexene] the value was -10 °C; for `CCC(=O)CC(C)CC` (centres undefined) [5-methyl-3-heptanone], 43 °C.
For `CCCCC(C)CCCC` [5-methylnonane], the flash point was 37 °C.
With `CCCCC(=O)CCCC` [5-nonanone], the flash point was 60 °C.
Turning to `CCCCCC(=O)CCCCC` [6-undecanone], the flash point was found to be 88 °C.
For `C=CCCCCC(C)C` [7-methyl-1-octene] the value was 18 °C; for `C=CCCCCCCCCO` [9-decen-1-ol], 119 °C; for `CCCCCCC(C)c1ccccc1` (centres undefined) [(1-methylheptyl)benzene], 100 °C.
With `CCCNCCO` [(2-hydroxyethyl)propylamine] the figure was 78 °C.
With `CCN(CC)c1ccccc1` [N,N-diethylaniline] the figure was 88 °C.
As to `CCN(C=O)CC` [N,N-diethylformamide], the flash point turned out to be 65 °C.
With `CC(C)N(C=O)C(C)C` [N,N-diisopropylformamide] the figure was 75 °C.
In turn, `CN(C)CCCN` [N,N-dimethyl-1,3-propanediamine] yielded a flash point of 32 °C.
For `CC(=O)N(C)C` [N,N-dimethylacetamide] the value was 66 °C.
With `CN(C)c1ccccc1` [N,N-dimethylaniline] the figure was 75 °C; with `CCCCNC(C)=O` [N-butylacetamide], 115 °C.
For `CCCCNc1ccccc1` [N-butylaniline] the value was 107 °C; for `CCN(C)CC` [N-ethyl-N-methylethanamine], -23 °C.
Compound `CCNC(C)=O` [N-ethylacetamide] displayed a flash point of 106 °C.
The compound `CCNC1CCCCC1` [N-ethylcyclohexanamine] displayed a flash point of 45 °C.
With `CN(CCO)CCO` [N-methyldiethanolamine] the figure was 137 °C.
As for `CC(C)(C)Nc1ccccc1` [N-tert-butylaniline], the flash point was 88 °C.
With `CC(=O)OC(C)=O` [aceticanhydride] the figure was 49 °C; with `C=CC=O` [acrolein], -19 °C; with `C=CC(=O)O` [acrylicacid], 54 °C.
With `C=CC#N` [acrylonitrile] the figure was -5 °C; with `C=CCO` [allylalcohol], 22 °C; with `C=CCC1CCCC1` [allylcyclopentane], 12 °C.
Turning to `C=CCOCC` [allylethylether], the flash point was -20 °C.
For `C=CCSCC` [allylethylsulfide] the value was 16 °C; for `C=CCOC(=O)C(=C)C` [allylmethacrylate], 37 °C.
